In EP2970215B1, “PYRROLIDINE DERIVATIVES, PHARMACEUTICAL COMPOSITIONS CONTAINING THEM, AND THEIR USE IN THERAPY” (AbbVie Deutschland GmbH & Co. KG, priority 2013, dated 2014):

Each compound was assayed against T1, human GlyT1c transporter (Homo sapiens, UniProt P48067) (assay: Radioligand binding assay using recombinant CHO cell membranes expressing human GlyT1). Settings: radioligand binding to human GlyT1c transporter-expressing membranes.
T1 construct: expressed in transfected cells; host or cells: CHO cells (recombinant; line hGlyT1c_5_CHO is named for the uptake assay)
T1 sequence (P48067 1-706): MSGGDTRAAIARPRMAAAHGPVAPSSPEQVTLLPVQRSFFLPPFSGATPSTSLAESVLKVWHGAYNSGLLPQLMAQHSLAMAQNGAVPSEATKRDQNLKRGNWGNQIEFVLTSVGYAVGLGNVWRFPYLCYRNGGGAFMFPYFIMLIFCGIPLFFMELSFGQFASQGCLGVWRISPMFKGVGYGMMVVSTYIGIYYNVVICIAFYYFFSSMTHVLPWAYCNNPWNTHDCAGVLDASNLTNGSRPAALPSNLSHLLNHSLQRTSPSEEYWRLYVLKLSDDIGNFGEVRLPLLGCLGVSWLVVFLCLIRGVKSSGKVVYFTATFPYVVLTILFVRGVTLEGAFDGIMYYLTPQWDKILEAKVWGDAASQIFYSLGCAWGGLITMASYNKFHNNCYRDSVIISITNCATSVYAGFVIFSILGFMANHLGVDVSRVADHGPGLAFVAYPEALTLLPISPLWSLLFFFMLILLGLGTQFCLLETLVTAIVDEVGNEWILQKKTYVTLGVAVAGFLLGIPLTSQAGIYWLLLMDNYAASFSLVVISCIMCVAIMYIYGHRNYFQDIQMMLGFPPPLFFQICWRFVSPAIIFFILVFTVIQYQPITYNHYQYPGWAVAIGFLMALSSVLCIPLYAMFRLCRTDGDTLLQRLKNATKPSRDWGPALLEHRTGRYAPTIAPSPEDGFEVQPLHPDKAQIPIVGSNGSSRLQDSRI
Source text: 2. Radioligand binding assays using recombinant CHO cell membranes expressing human GlyT1: […]

`Cn1cnc(S(=O)(=O)N2C[C@@H](Nc3cccc(C(F)(F)F)n3)[C@H](c3ccccc3F)C2)c1` (relative stereo) [Example 203, N-{trans-4-(2-fluorophenyl)-1-[(1-methyl-1H-imidazol-4-yl)sulfonyl]pyrrolidin-3-yl}-6-(trifluoromethyl)pyridin-2-amine] and `COc1nc(N[C@H]2CN(S(=O)(=O)c3cn(C)cn3)C[C@@H]2c2ccccc2)cc(C(F)(F)F)n1` [Example 605, 2-methoxy-N-{(3R,4S)-1-[(1-methyl-1H-imidazol-4-yl)sulfonyl]-4-phenylpyrrolidin-3-yl} -6-(trifluoromethyl)pyrimidin-4-amine] cannot be ordered by Ki: at most 10 µM for the first, at most 1 µM for the second.

`Cn1cnc(S(=O)(=O)N2C[C@@H](C(=O)Nc3ccc(Cl)c(OC(F)(F)F)c3)[C@H](c3ccc(F)cc3)C2)c1` (relative stereo) [Example 371, Trans-N-[4-chloro-3-(trifluoromethoxy)phenyl]-4-(4-fluorophenyl)-1-[(1-methyl-1H-imidazol-4-yl)sulfonyl]pyrrolidine-3-carboxamide] and `Cn1cnc(S(=O)(=O)N2C[C@@H](C(=O)Nc3ccc(F)c(C(F)(F)F)c3)[C@H](c3ccc(F)cc3)C2)c1` (relative stereo) [Example 274, trans-4-(4-fluorophenyl)-N-[4-fluoro-3-(trifluoromethyl)phenyl]-1-[(1-methyl-1H-imidazol-4-yl)sulfonyl]pyrrolidine-3-carboxamide] cannot be ordered by Ki: at most 1 µM for the first, at most 0.1 µM for the second.

`O=c1[nH]c(=O)c2cc(S(=O)(=O)N3CC(Nc4ccc(F)c(F)c4)C(c4ccccc4)C3)ccc2[nH]1` (stereo not shown) [Example 480, 6-({3-[(3,4-difluorophenyl)amino]-4-phenylpyrrolidin-1-yl}sulfonyl)quinazoline-2,4(1H,3H)-dione] and `O=S(=O)(c1cccnc1)N1CC(Nc2ccc(F)c(F)c2)C(c2ccccc2)C1` (stereo not shown) [Example 477, N-(3,4-difluorophenyl)-4-phenyl-1-(pyridin-3-ylsulfonyl)pyrrolidin-3-amine] cannot be ordered by Ki: over 10 µM for the first, at most 10 µM for the second.

`CCCCOC(=O)N[C@H]1CN(S(=O)(=O)c2cn(C)cn2)C[C@@H]1c1ccccc1` [Example 544, butyl {(3R,4S)-1-[(1-methyl-1H-imidazol-4-yl)sulfonyl]-4-phenylpyrrolidin-3-yl}carbamate] and `CCC(C)C(C)CN[C@H]1CN(S(=O)(=O)c2cn(C)cn2)C[C@@H]1c1ccccc1` (stereo partly drawn) [Example 561, (3R,4S)-N-(2,3-dimethylpentyl)-1-[(1-methyl-1H-imidazol-4-yl)sulfonyl]-4-phenylpyrrolidin-3-amine] cannot be ordered by Ki: at most 10 µM for the first, at most 1 µM for the second.

`Cn1cnc(S(=O)(=O)N2C[C@@H](Nc3ccc(F)cc3)[C@H](c3ccccc3)C2)c1` (relative stereo) [Example 71, trans-N-(4-fluorophenyl)-1-[(1-methyl-1H-imidazol-4-yl)sulfonyl]-4-phenylpyrrolidin-3-amine] and `Cn1cnc(S(=O)(=O)N2C[C@@H](NC(=O)c3ccc(F)cc3)[C@H](c3ccccc3)C2)c1` (relative stereo) [Example 19, 4-fluoro-N-{trans-1-[(1-methyl-1H-imidazol-4-yl)sulfonyl]-4-phenylpyrrolidin-3-yl}benzamide] cannot be ordered by Ki: at most 1 µM for the first, at most 10 µM for the second.

`Cc1ccccc1N[C@@H]1CN(S(=O)(=O)c2cn(C)cn2)C[C@H]1c1ccc(F)cc1` (relative stereo) [Example 84, trans-4-(4-fluorophenyl)-1-[(1-methyl-1H-imidazol-4-yl)sulfonyl]-N-(2-methylphenyl)pyrrolidin-3-amine] and `Cc1cc(N[C@H]2CN(S(=O)(=O)c3cn(C)cn3)C[C@@H]2c2ccc(F)cc2)ccc1Cl` [Example 743, (3R,4S)-N-(4-chloro-3-methylphenyl)-4-(4-fluorophenyl)-1-[(1-methyl-1H-imidazol-4-yl)sulfonyl]pyrrolidin-3-amine] cannot be ordered by Ki: at most 1 µM for the first, at most 0.1 µM for the second.

`N#Cc1cccc(N[C@@H]2CN(S(=O)(=O)c3ccc(C(F)(F)F)cc3)C[C@H]2c2ccccc2)c1` (relative stereo) [Example 144, 3-{[trans-4-phenyl-1-{[4-(trifluoromethyl)phenyl]sulfonyl}pyrrolidin-3-yl]amino}benzonitrile] and `Cn1cc(S(=O)(=O)N2C[C@@H](NC(=O)c3cccc(C(F)(F)F)c3Cl)[C@H](c3ccccc3)C2)cn1` (relative stereo) [Example 43, 2-chloro-N-{trans-1-[(1-methyl-1H-pyrazol-4-yl)sulfonyl]-4-phenylpyrrolidin-3-yl}-3-(trifluoromethyl)benzamide] cannot be ordered by Ki: over 10 µM for the first, at most 10 µM for the second.

`Cn1cnc(S(=O)(=O)N2C[C@@H](Nc3ccc(F)cc3)[C@H](c3ccc(F)cc3)C2)c1` (relative stereo) [Example 92, trans-N,4-bis(4-fluorophenyl)-1-[(1-methyl-1H-imidazol-4-yl)sulfonyl]pyrrolidin-3-amine] and `Cc1cc(N[C@H]2CN(S(=O)(=O)c3cn(C)cn3)C[C@@H]2c2ccccc2)ccc1Cl` [Example 669, (3R,4S)-N-(4-chloro-3-methylphenyl)-1-[(1-methyl-1H-imidazol-4-yl)sulfonyl]-4-phenylpyrrolidin-3-amine] cannot be ordered by Ki: at most 0.1 µM for the first, at most 0.1 µM for the second.

Compared with `Cn1cnc(S(=O)(=O)N2C[C@H](Nc3cc(F)ccn3)[C@@H](c3ccccc3)C2)c1` [Example 405, 4-fluoro-N-{(3R,4S)-1-[(1-methyl-1H-imidazol-4-yl)sulfonyl]-4-phenylpyrrolidin-3-yl}pyridin-2-amine], `CC(=O)CCC(=O)N[C@H]1CN(S(=O)(=O)c2cn(C)cn2)C[C@@H]1c1ccc(F)cc1` [Example 738, N-{(3R,4S)-4-(4-fluorophenyl)-1-[(1-methyl-1H-imidazol-4-yl)sulfonyl]pyrrolidin-3-yl}-4-oxopentanamide] is higher in Ki: at most 1 µM for the first, over 10 µM for the second.

`Cn1cnc(S(=O)(=O)N2CC(Nc3ccc(F)c(F)c3)C(C3CCCO3)C2)c1` (stereo not shown) [Example 610, N-(3,4-difluorophenyl)-1-[(1-methyl-1H-imidazol-4-yl)sulfonyl]-4-[-tetrahydrofuran-2-yl]pyrrolidin-3-amine] and `O=S(=O)(c1ccc(N2CCOCC2)nc1)N1CC(Nc2ccc(F)c(F)c2)C(c2ccccc2)C1` (stereo not shown) [Example 494, N-(3,4-difluorophenyl)-1-{[6-(morpholin-4-yl)pyridin-3-yl]sulfonyl}-4-phenylpyrrolidin-3-amine] cannot be ordered by Ki: at most 10 µM for the first, at most 10 µM for the second.

`Cn1cnc(S(=O)(=O)N2C[C@H](NC(=O)C3(C(F)(F)F)CC3)[C@@H](c3ccc(F)cc3)C2)c1` [Example 375, N-{(3R,4S)-4-(4-fluorophenyl)-1-[(1-methyl-1H-imidazol-4-yl)sulfonyl]pyrrolidin-3-yl}-1-(trifluoromethyl)cyclopropanecarboxamide] and `Cn1ccc(S(=O)(=O)N2C[C@@H](NC(=O)c3cccc(C(F)(F)F)c3Cl)[C@H](c3ccccc3)C2)n1` (relative stereo) [Example 49, 2-chloro-N-{trans-1-[(1-methyl-1H-pyrazol-3-yl)sulfonyl]-4-phenylpyrrolidin-3-yl}-3-(trifluoromethyl)benzamide] cannot be ordered by Ki: at least 10 µM for the first, at most 10 µM for the second.

`Cn1cc(S(=O)(=O)N2C[C@@H](NC(=O)c3cccc(C(F)(F)F)c3Cl)[C@H](c3ccccc3)C2)c(C(F)(F)F)n1` (relative stereo) [Example 38, 2-chloro-N-[trans-1-{[1-methyl-3-(trifluoromethyl)-1H-pyrazol-4-yl]sulfonyl}-4-phenylpyrrolidin-3-yl]-3-(trifluoromethyl)benzamide] and `Cn1cnc(S(=O)(=O)N2C[C@@H](NC(=O)c3cccc(C(F)(F)F)c3Cl)[C@H](c3ccccc3)C2)c1Cl` (relative stereo) [Example 48, 2-chloro-N-{trans-1-[(5-chloro-1-methyl-1H-imidazol-4-yl)sulfonyl]-4-phenylpyrrolidin-3-yl}-3-(trifluoromethyl)benzamide] cannot be ordered by Ki: at most 10 µM for the first, at most 10 µM for the second.

Same assay, conditions: radioligand binding, recombinant CHO cell membranes expressing human GlyT1c

`Cn1cc(S(=O)(=O)N2C[C@@H](Nc3cccc(OCC(F)(F)F)c3)[C@H](c3ccc(F)cc3)C2)nn1` (relative stereo) [Example 836, trans-4-(4-fluorophenyl)-1-[(1-methyl-1H-1,2,3-triazol-4-yl)sulfonyl]-N-[3-(2,2,2-trifluoroethoxy)phenyl]pyrrolidin-3-amine] and “2-[(1-methyl-1H-imidazol-4-yl)sulfonyl]-N-[4-(trifluoromethyl)pyridin-2-yl]-2,3,3a,8-tetrahydroindeno[1,2-c]pyrrol-8a(1H)-amine [Example 892]” cannot be ordered by Ki: at most 0.01 µM for the first, at most 0.1 µM for the second.

`CCCCCCNC1CN(S(=O)(=O)c2cn(C)cn2)CC1[C@H]1CCCO1` (stereo partly drawn) [Example 820, N-Hexyl-1-[(1-methyl-1H-imidazol-4-yl)sulfonyl]-4-[(2R)-tetrahydrofuran-2-yl]pyrrolidin-3-amine] and `Cn1cnc(S(=O)(=O)N2C[C@@H](Nc3cc(C(F)(F)F)c(Cl)cn3)[C@H](C3CCCO3)C2)c1` (relative stereo) [Example 844, 5-Chloro-N-[trans-1-[(1-methyl-1H-imidazol-4-yl)sulfonyl]-4-(tetrahydrofuran-2-yl)pyrrolidin-3-yl]-4-(trifluoromethyl)pyridin-2-amine] cannot be ordered by Ki: at most 10 µM for the first, at most 1 µM for the second.
